The values below come from ChEMBL document CHEMBL5214992, “Potent Uncompetitive Inhibitors of Nicotinamide N-Methyltransferase (NNMT) as In Vivo Chemical Probes” (J Med Chem, 2022).

Data set [1] addresses T1, Nicotinamide N-methyltransferase (Homo sapiens, UniProt P40261).
T1 sequence (P40261 whole entry): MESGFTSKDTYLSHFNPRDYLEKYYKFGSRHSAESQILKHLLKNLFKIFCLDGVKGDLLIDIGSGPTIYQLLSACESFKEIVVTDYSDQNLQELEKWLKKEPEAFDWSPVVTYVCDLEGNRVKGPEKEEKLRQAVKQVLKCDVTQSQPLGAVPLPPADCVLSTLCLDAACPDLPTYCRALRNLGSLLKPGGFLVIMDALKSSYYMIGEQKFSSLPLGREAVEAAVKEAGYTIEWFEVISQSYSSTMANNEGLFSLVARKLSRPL
Description: Inhibition of human NNMT measured after 20 mins by luminescence based methyltransferase assay

Data set [2] concerns the target T1, Nicotinamide N-methyltransferase. As to the kind of experiment: Inhibition of human NNMT in human K562 cells measured after 24 hrs by quantitative mass spectrometry. Format: cell-based.
Data set [3] in a line: Microsomal stability in human liver microsomes assessed as compound remaining after 60 mins by LC-MS/MS analysis. Format: ADME, Microsome. The settings on record: for remaining at 1 h: liver microsomes, read-out: Stability. For orientation: Liver microsomes are vesicles of endoplasmic reticulum, rich in cytochrome P450 enzymes.
The nature of data set [4]: Microsomal stability in mouse liver microsomes assessed as compound remaining after 60 mins by LC-MS/MS analysis. Format: ADME, Microsome. As to conditions: for Stability: microsomes, 1 h; for remaining at 1 h: liver microsomes, read-out: Stability.
The nature of data set [5]: Dissociation constant, pKa of the compound. Format: physicochemical.
A short description of data set [6]: AUClast in C57BL6/N mouse at 50 mg/kg, po measured upto 24 hrs by LC-MS/MS analysis. Format: ADME, organism-based. More on the design: time < 24 hrs, dose 50 mg/kg, route po. The settings on record: in vivo; for AUC(0-t) at 24 h: C57BL6/N.
Data set [7] can be described thus: Clearance in C57BL6/N mouse at 1 mg/kg, iv measured upto 24 hrs by LC-MS/MS analysis. Format: ADME, organism-based. The settings on record: in vivo.
Data set [8] is described as follows: Half life in C57BL6/N mouse at 50 mg/kg, po measured upto 24 hrs by LC-MS/MS analysis. Format: ADME, organism-based. As to conditions: in vivo.
Data set [9] in a line: Cmax in C57BL6/N mouse at 50 mg/kg, po measured upto 24 hrs by LC-MS/MS analysis. Format: ADME, organism-based. On the set-up: dose 50 mg/kg, time < 24 hrs, route po. The settings on record: in vivo.
Data set [10] in a line: Tmax in C57BL6/N mouse at 50 mg/kg, po measured upto 24 hrs by LC-MS/MS analysis. Format: ADME, organism-based. As to conditions: in vivo.
Data set [11] is described as follows: Half life in C57BL6/N mouse at 10 mg/kg, po measured upto 24 hrs by LC-MS/MS analysis. Format: ADME, organism-based. The settings on record: in vivo.
A short description of data set [12]: Oral bioavailability in C57BL6/N mouse at 50 mg/kg measured upto 24 hrs by LC-MS/MS analysis. Format: ADME, organism-based. As to conditions: in vivo; for bioavailability: C57BL6/N.
A short description of data set [13]: Plasma protein binding in human. Format: ADME, cell-free. The settings on record: read-out: PPB.
Another data set addresses CYP450 (Homo sapiens, UniProt P04798+P05177+P05181+P08684+P10632+P10635+P11509+P11712+P13584+P20813+P20815+P20853+P24462+P24903+P33260+P33261+P51589+P78329+P98187+Q02928+Q08477+Q16678+Q16696+Q5TCH4+Q6VVX0+Q7Z449+Q8TAV3+Q96SQ9+Q9HB55). As to the kind of experiment: Inhibition of CYP450 (unknown origin). Format: ADME, protein assay.
Data set [14] can be described thus: Plasma protein binding in mouse. Format: ADME, cell-free. The settings on record: read-out: PPB.
The nature of data set [15]: Volume of distribution at steady state in C57BL6/N mouse. Format: ADME. As to conditions: in vivo, read-out: Vdss.
Another data set concerns the target hERG (Homo sapiens, UniProt Q12809). Kind of data set: Inhibition of hERG. Format: toxicity. (In general: The hERG channel carries a current that helps repolarise heart muscle cells.)
The nature of data set [16]: Mutagenicity in Salmonella typhimurium by Ames test. As to conditions: salmonella enterica subsp. enterica serovar typhimurium. Format: toxicity. (In general: In the Ames test, an excess of revertant colonies over the control signals mutagenicity.)
Data set [17] in a line: Aqueous solubility of compound at pH 7.4. Format: physicochemical. As to conditions: aqueous medium.
Data set [18] in a line: Toxicity in C57BL6/N mouse assessed as adverse effect at 50 to 100 mg/kg, po qd measured after 2 weeks. Format: organism-based. The settings on record: in vivo, 336 h, dose 50-100 mg/kg.
The target in another data set is P-gp (Homo sapiens, UniProt P08183). Kind of data set: Substrate activity at P-gp (unknown origin) assessed as efflux ratio. As to conditions: not told.
Substrate in data set [19]: C[C@@H]1Cc2cc(C(N)=O)cnc2N1
Description: Uncompetitive inhibition of human NNMT assessed as Km of SAM
The settings on record: Homo sapiens.

Substrate in data set [20]: C[C@@H]1Cc2cc(C(N)=O)cnc2N1
Description: Uncompetitive inhibition of human NNMT assessed as Km of nicotinamide
The settings on record: Homo sapiens. The source holds these as a separate data set.

hERG, sequence (Q12809 whole entry): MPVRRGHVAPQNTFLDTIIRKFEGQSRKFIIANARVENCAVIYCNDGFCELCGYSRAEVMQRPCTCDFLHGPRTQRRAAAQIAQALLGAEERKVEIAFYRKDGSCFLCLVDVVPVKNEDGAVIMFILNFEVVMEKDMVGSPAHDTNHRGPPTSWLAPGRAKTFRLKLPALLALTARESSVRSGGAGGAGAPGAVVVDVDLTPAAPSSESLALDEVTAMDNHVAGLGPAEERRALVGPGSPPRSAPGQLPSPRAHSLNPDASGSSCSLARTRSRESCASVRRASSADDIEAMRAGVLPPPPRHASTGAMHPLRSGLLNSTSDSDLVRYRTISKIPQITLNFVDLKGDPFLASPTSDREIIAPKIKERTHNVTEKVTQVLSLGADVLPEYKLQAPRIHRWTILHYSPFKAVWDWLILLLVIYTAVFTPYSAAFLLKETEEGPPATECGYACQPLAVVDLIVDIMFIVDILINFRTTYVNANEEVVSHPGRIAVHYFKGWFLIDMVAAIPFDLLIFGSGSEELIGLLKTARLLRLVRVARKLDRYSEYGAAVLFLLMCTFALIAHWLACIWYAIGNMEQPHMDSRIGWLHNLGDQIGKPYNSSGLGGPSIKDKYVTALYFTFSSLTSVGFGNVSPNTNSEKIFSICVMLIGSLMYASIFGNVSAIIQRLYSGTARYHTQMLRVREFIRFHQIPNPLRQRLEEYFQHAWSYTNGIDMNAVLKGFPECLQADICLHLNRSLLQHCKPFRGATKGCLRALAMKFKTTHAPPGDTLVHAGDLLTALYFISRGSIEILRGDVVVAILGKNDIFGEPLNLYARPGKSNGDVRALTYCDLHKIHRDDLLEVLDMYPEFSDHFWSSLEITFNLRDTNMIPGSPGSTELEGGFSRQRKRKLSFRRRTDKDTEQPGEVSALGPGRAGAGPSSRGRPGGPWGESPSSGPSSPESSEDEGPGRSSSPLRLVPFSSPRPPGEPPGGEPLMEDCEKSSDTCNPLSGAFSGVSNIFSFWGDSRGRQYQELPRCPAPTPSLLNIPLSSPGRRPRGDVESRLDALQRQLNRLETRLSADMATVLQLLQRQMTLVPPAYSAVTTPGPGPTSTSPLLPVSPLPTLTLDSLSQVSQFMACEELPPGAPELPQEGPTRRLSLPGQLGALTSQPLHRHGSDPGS
P-gp, sequence (P08183 whole entry): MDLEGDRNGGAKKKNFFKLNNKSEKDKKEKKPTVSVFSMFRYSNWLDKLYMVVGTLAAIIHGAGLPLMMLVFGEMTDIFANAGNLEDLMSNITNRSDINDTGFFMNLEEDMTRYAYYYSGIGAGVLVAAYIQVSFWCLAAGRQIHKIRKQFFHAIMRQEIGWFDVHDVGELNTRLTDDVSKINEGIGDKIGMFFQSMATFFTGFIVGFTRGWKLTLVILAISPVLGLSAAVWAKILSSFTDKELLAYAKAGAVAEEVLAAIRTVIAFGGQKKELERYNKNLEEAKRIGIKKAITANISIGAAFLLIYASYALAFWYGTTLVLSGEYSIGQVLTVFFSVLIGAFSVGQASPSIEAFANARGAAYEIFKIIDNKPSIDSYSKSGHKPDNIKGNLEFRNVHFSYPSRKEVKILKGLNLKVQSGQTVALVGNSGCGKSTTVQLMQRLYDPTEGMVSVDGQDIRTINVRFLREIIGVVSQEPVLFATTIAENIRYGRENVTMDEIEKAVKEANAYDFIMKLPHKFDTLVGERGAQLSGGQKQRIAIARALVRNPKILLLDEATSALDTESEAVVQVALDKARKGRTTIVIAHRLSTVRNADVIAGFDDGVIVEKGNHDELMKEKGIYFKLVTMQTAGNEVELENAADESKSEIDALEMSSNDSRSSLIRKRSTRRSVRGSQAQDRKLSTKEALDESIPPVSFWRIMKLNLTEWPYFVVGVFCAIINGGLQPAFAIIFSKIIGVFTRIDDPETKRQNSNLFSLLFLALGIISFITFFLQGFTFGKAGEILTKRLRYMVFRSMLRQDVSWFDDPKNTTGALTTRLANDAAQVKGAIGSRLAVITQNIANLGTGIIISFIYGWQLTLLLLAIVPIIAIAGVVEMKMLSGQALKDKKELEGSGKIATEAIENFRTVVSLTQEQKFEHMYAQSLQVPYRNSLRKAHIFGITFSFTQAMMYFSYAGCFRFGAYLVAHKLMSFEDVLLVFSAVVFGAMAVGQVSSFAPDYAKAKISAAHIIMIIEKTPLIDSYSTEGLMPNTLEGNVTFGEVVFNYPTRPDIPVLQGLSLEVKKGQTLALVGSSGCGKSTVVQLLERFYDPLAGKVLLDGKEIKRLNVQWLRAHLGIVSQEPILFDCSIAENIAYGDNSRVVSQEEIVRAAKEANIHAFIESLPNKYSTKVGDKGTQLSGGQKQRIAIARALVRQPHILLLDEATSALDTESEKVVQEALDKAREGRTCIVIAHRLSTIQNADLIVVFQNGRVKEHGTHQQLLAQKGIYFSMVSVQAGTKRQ

Regarding `CCOc1cc(C)c(C(N)=O)cn1`, the IC50 (usually the concentration that inhibits the measured activity by half) in data set [1] is over 10 µM.
Same read-out and setting: then `NC(=O)c1cnc2c(c1)OCCN2`, with over 10 µM.
The same measure, in the same setting: then `NC(=O)c1ccc(N)nc1` [6-AMINONICOTINAMIDE], with 3.62 µM; and `CNc1ncc(C(N)=O)cn1`, with over 10 µM; and `CNc1ncc(C(N)=O)c(C)n1`, with over 10 µM.
`C[C@H]1Cc2cc(C(N)=O)cnc2N1` returned an IC50 in data set [1] of over 10 µM.
Molecule `CNc1cc(C(F)(F)F)c(C(N)=O)cn1` yielded an IC50 in [1] of over 10 µM.
In [1], `Cc1c(C(N)=O)c[n+]([O-])c2c1CCN2` registered an IC50 of 7.05 µM.
Consider `CNc1cc(OC)c(C(N)=O)cn1`, for which the IC50 in [1] is over 10 µM.
The molecule `C[C@H]1Nc2ncc(C(N)=O)cc2[C@@H]1C` displayed an IC50 in data set [2] of 0.114 µM. For the same molecule, the Stability result in data set [3] (microsomes, 1 h) is given as “Unstable”; in data set [4] it was “Unstable”.
In the case of `C[C@@H]1Cc2cc(C(N)=O)c[n+](C)c2N1`, the IC50 in data set [1] came out at 6.24 µM.
For `COc1ccccn1`, the pKa (as a rule, the pH at which an ionisable group is half protonated) in data set [5] is 3.28.
As for `NC(=O)c1cnc2c(c1Cl)CCN2`, the AUC(0-t) – broadly, the area under the concentration-time curve up to a stated or last time point – at 24 h in data set [6] is 4.33 µg·h/mL. For the same molecule, the IC50 in data set [2] came to 0.079 µM; in data set [1], 0.092 µM. Besides, the clearance (usually a measure of how efficiently the substance is removed, as volume per time) in [7] turned out to be 10.7 L/h/kg. The remaining at 1 h in [3] was determined as 57%; in data set [4], 40%. In addition, the values for the half-life in data set [8] and in data set [11] were 172 min and 27 min, respectively. In data set [9], the Cmax (usually the peak of the concentration-time curve) came out at 5.58 µg/mL. For the same molecule, the Tmax (in general, the time at which the peak concentration occurs) in [10] turned out to be 15 min. In [12], the bioavailability was determined as 90%.
On to `C[C@@H]1Cc2cc(C(N)=O)cnc2N1`, for which the AUClast in data set [6] (24 h) is 5.115 µg·h/mL. Also, the fraction unbound in [13] is over 0.62; in data set [14], over 0.76. The IC50 in data set [2] is 0.038 µM; at CYP450 it was over 100 µM; in data set [1] it was 0.042 µM; on hERG it was over 30 µM. Besides, the remaining at 1 h in data set [3] came to 97%; in data set [4] it was 93%. The results for the half-life in [8] and in data set [11] were 173 min and 78.5 min, respectively. Moreover, the Vd in [15] amounted to 0.877 L/kg. Moreover, the peak level in [9] (Cmax) was 22.5 µg/mL. In addition, the Activity entry in data set [16] and in data set [18] was “Non-Toxic” in each case. Moreover, in data set [17], the solubility – broadly, the concentration that dissolves in the medium under given conditions – is at least 0.05 mg/mL. Also, the Tmax in data set [10] stood at 15 min. Also, at P-gp, the efflux ratio – broadly, a quotient of directional permeabilities that is used to spot active efflux – is 0.79.
`NC(=O)c1cnc2[nH]ccc2c1Cl` registered an IC50 in [1] of over 10 µM.
Still for that read-out and setting: then `NC(=O)c1cnc2[nH]ncc2c1`, with over 10 µM; and `CNc1ncc(C(N)=O)s1`, with over 10 µM.
In [1], `C[C@@H]1Nc2ncc(C(N)=O)cc2[C@H]1C` returned an IC50 of over 10 µM.
As to `CNc1cc(C)c(C(N)=O)cn1`, the exposure AUC(0-t) at 24 h in [6] is 30.7 µg·h/mL. Also, the results for the IC50 in [2] and in data set [1] were 0.025 µM and 0.282 µM, respectively. This molecule came in with a clearance in [7] of 3.77 L/h/kg. Moreover, the figures for the remaining at 1 h in data set [3] and in [4] were 95% and 85%, respectively. Besides, the half-life (commonly the time needed for the level to fall by half in the phase considered) in [8] was 107 min; in [11], 66.6 min. In data set [9], this molecule displayed a Cmax of 38.9 µg/mL.
The molecule `COc1ccc(C(N)=O)cn1` came in with an IC50 in [1] of 1.39 µM.
The molecule `NC(=O)c1cnc2c(c1)CCN2` registered an AUC(0-t) at 24 h in data set [6] of 29 µg·h/mL. The IC50 in data set [2] worked out at 0.142 µM; in data set [1], 0.175 µM. Also, the clearance in data set [7] turned out to be 3.85 L/h/kg. Moreover, the remaining at 1 h came to 100% in data set [3] and 89% in [4]. Moreover, the half-life in data set [8] is 87.6 min; in data set [11] it was 23.4 min. Further, the Cmax in [9] came to 28.7 µg/mL. In [10], the Tmax came out at 15 min.
As to `Cc1c(C(N)=O)cnc2c1CCN2`, the AUC(0-t) at 24 h in data set [6] was 9.22 µg·h/mL. The figures for the IC50 in data set [2] and in [1] were 0.023 µM and 0.102 µM, respectively. In [7], this molecule gave a clearance of 10.9 L/h/kg. Besides, the remaining at 1 h came to 85% in data set [3] and 47% in data set [4]. In addition, the half-life was 32.6 min in data set [8] and 22.2 min in [11]. The concentration in data set [9] peaked (Cmax) at 13.5 µg/mL. Further, the Tmax in [10] is 15 min. Also, the F in [12] (po, 50 mg/kg, 24 h) stood at 191%.
For the molecule `C[C@@H]1Cc2c(ncc(C(N)=O)c2Cl)N1`, the IC50 in data set [1] is 0.048 µM.
In the case of `CNc1ncc(C(N)=O)c(C)c1C`, the IC50 in [1] is over 10 µM.
Turning to `Cc1c(C(N)=O)cnc2c1C[C@@H](C)N2`, the AUC(0-t) at 24 h in data set [6] amounted to 12.1 µg·h/mL. Further, the IC50 in [2] came to 0.012 µM; in data set [1] it was 0.043 µM. Also, the clearance in [7] stood at 5.4 L/h/kg. Besides, in data set [3], the remaining at 1 h was found to be 91%. Besides, the Stability entry in [4] is recorded as “Unstable”. Also, the Cmax in data set [9] is 11.2 µg/mL. Also, the Tmax in [10] came to 20 min. In addition, the bioavailability in data set [12] was 129%.
`CNc1cc(Cl)c(C(N)=O)cn1`: in data set [1], inhibition was half-maximal at 0.639 µM (IC50).
Same read-out and setting: then `CNc1cc(C)c(C(N)=S)cn1`, with over 10 µM.
Still for that read-out and setting: then `NC(=O)c1cnc2c(c1)CCCN2`, with 0.74 µM; and `CNc1ccncc1C(N)=O`, with over 10 µM.

B1: Nicotinamide N-methyltransferase (Homo sapiens), P40261 (protein)
chain: T1 sequence (P40261 whole entry)
As to B1, the results for the Km in [19] and in data set [20] were 20.2 µM and 13.9 µM, respectively.
